Columns and labels:
H₁ receptor [1] = target: T1, H₁ receptor (Cavia porcellus, UniProt P31389); assay: Functional activity on guinea pig isolated ileum, histamine-induced contractions; type: cell-based
T1 construct: A portion of terminal ileum was excised and immersed in a bath for isolated organ; from tissue; host or cells: guinea pig isolated terminal ileum
Experimental: (§1) The test was essentially meant to characterize the type of activity of the molecules under examination by checking their antagonist activity versus H₁ receptor. To this end, the guinea pig isolated ileum was used for two different tests: a) evaluation of the antagonist activity towards the agonist histamine; b) evaluation of the antagonist activity towards the agonist acetylcholine. Said tests were carried out to check the specificity and selectivity levels of the moleculas under examination.
(§2) Male and female guinea pigs weighing approx. 250 g were used. A portion of terminal ileum was excised and immersed in a bath for isolated organ, in Tyrode solution, at 37°C. The antagonist activity was evaluated by determining the ability of the studied drug to modify the dose-effect curve built with increasing doses of agonist alone. Furthermore, in another series of experiments, increasing doses of the molecules under examination were tested in comparison with a submaximal dose of agonist.
The dose of histamine used was 6.8x10⁻⁸ M. The percentage of inhibition found after adding the tested drug to the bath for isolated organ versus the response obtained from the agonist alone was calculated. Six detections were carried out for each drug concentration. The results, calculated in terms of IC₅₀, corresponded to the drug concentrations responsible for a 50% reduction in the submaximal concentration of the agonist alone.

[2] = system: muscarinic cholinergic receptor; assay: Functional activity on guinea pig isolated ileum, acetylcholine-induced contractions; type: cell-based; settings: TFZ 5 x 10⁻⁷ M, dose corresponding to the IC₅₀ effective against histamine
Experimental: as §1, §2
With a view to estimating the antagonist specificity level of the molecule TFZ under examination and taking into account the anticholinergic activity often associated with antihistaminic molecules, the capability of TFZ of antagonizing the acetylcholine (ACh) contraction effect on guinea pig isolated ileum was tested. […]

H₁ receptor [3] = target: T1, H₁ receptor; assay: Binding assay under saturation kinetics conditions (Scatchard); design: species or system guinea pig; settings: in the presence of TFZ 2 x 10⁻⁷ M
Experimental: These assays (Scatchard) were carried out under the same incubation conditions and according to the conclusive test method described under paragraph 1a), with the exception that the radioligand concentration was changed according to a range of concentrations comprised between 0.3 and 10 nM, in the presence of a concentration of antagonist TFZ of 2 x 10⁻⁷ M.

T1 sequence (P31389 whole entry): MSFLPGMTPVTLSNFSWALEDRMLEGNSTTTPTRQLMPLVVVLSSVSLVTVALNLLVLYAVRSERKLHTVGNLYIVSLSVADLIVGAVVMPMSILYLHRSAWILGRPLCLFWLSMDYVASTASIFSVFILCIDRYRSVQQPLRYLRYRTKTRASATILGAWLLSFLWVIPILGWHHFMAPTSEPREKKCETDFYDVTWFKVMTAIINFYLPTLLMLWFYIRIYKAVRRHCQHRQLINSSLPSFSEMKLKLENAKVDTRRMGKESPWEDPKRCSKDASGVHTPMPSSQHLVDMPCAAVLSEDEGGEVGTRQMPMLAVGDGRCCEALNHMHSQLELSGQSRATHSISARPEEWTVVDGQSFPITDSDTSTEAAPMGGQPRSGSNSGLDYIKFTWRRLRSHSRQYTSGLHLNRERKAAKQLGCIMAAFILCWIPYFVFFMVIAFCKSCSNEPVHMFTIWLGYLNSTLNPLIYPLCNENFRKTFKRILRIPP

With `CC(C)(c1ccc(C(O)CCCN2CCC(C(O)(c3ccccc3)c3ccccc3)CC2)cc1)c1nn[nH]n1` (racemic) [TFZ, p-1-hydroxy-4-(4-hydroxydiphenylmethyl-1-piperidinyl)-butyl-2-(1H-tetrazol-5-yl)-isopropyl benzene] the “IC₅₀, inhibition of histamine-submaximal contraction” value (H₁ receptor [1]; histamine 6.8 x 10⁻⁸ M, comparison in words, numbers only in Fig. 5) was “completely superimposable to that of MET I”, the “agonist activity (contraction of the ileum smooth muscles)” value (H₁ receptor [1]; increasing doses added to the bath perfusion liquid, no agonist) was “no agonist activity” and the “type of antagonist activity towards histamine (Lineweaver-Burk)” value (H₁ receptor [1]; three TFZ concentrations, Fig. 4) was “competitive antagonist activity”. The “inhibitory activity against acetylcholine (ACh) contraction effect” value [2] was “no inhibitory activity” and the “Bmax (density of the binding sites)” value (H₁ receptor [3]) was “no significant change”.

— patent EP0648759A1, “Antihistaminic compounds, process for their preparation and pharmaceutical compositions containing them” (ERREGIERRE S.p.A., priority 1993, dated 1995)
